Reference: PMC8705783, “The Effect of Conjugation with Octaarginine, a Cell-Penetrating Peptide on Antifungal Activity of Imidazoacridinone Derivative” (International Journal of Molecular Sciences, 2021)
Values after ≈ are worked out from the molar mass of the structure shown. Structures can show the parent of a compound that is named as a salt. Where two headings read alike, the source gives them in different places.

Columns and labels:
S. cerevisiae ATCC 9763 = test: Minimal fungicidal concentration, spot assay; assay type: cell-based; details: minimal fungicidal concentration that kills 99% of cells
Protocol: (§1) To establish the possible mode of action for Compound 1-R8, we have analysed the killing activity and determined minimal fungicidal concentrations (MFCs) (Table 4). Additionally, killing kinetics analysis against pathogenic C. albicans ATCC 10231 was performed (Figure 2).
(§2) Minimum fungicidal concentrations (MFCs) were determined as described previously by spot assay. The MFC was determined as the lowest concentration of the test compound in which no recovery of microorganisms was observed.

Candida albicans Gu5 [1] = details: Gu5, 12 h
[2] = tested on: Candida albicans ATCC 10231; details: ATCC 10231, 24 h, pH 7
C. glabrata DSM 11226 = test: microbe, parasite or virus in culture; assay type: cell-based; details: DSM 11226
Protocol: as §1, §2

C. parapsilosis DSM 5784 = test: microbe, parasite or virus in culture; assay type: cell-based; details: DSM 5784
Protocol: as §1, §2

C. albicans ATCC 10231 [3] = test: microbe, parasite or virus in culture; assay type: cell-based; details: ATCC 10231
Protocol: as §1, §2

C. krusei DSM 6128 = test: microbe, parasite or virus in culture; assay type: cell-based; details: DSM 6128
Protocol: as §1, §2

[4] = tested on: Saccharomyces cerevisiae ATCC 9763; details: ATCC 9763, 24 h, pH 7
Candida albicans B4 [5] = details: B4, 12 h
[6] = tested on: Candida glabrata ATCC 90030; details: ATCC 90030, 24 h, pH 7
[7] = tested on: reference and fluconazole-resistant clinical strains; details: 12 h
HEK-293 = test: cells; assay type: cell-based, human; details: 72 h
Protocol: (§3) The investigated compounds were screened for their in vitro antiproliferative activity towards a human embryonic kidney cell line (HEK-293) and human liver cancer cell line (HEPG2) using colorimetric MTT.
(§4) The human embryonic kidney cell line (HEK-293) and human liver cancer cell line (HEPG2) were purchased from ATCC (Manassas, Virginia, USA). HEK-293 was cultured in Dulbecco’s Modified Eagle Medium (Corning, NY, USA) and HEPG2 in Minimum Essential Medium Eagle (Corning, NY, USA). For each cell line, the culture medium was supplemented with 10% fetal bovine serum, 2 mM L-glutamine, and antibiotics: penicillin 62.6 µg mL^−1 and streptomycin 40 µg mL^−1. The cells were cultured at the humidified atmosphere of 5% CO2/95% air and routinely tested for Mycoplasma contamination.
(§5) Antiproliferative activity of the compounds was determined by (3-(4,5-dimethylthiazol-2-yl)-2,5-diphenyltetrazolium bromide (MTT, Sigma-Aldrich, St. Louis, MO, USA) assay, which involves the assessment of cell viability by the measurement of the cellular oxidoreductase activity. Briefly, cells were seeded into 96-well culture plates and were allowed to adhere overnight. The investigated compounds were dissolved in DMSO and added to wells (1% final concentration of DMSO) in various concentrations. After 72 h incubation, 20 µL of MTT solution in PBS (4 mg mL^−1) was added to each well, and plates were incubated for an additional 3h in standard culture conditions. After that, the medium was aspirated, and formazan crystals were dissolved in DMSO. The absorbance was determined at 570 nm with a microplate reader (Asys UVM 340 Microplate Reader, Biochrom, Cambridge, UK). All experiments were performed three times independently in triplicate.

HEPG2 = test: cells; assay type: cell-based, human; details: 72 h
Protocol: as §3, §4, §5

Candida albicans F2 [8] = details: F2, 12 h
[9] = tested on: Candida parapsilosis ATCC 22019; details: ATCC 22019, 24 h, pH 7
Candida krusei ATCC 6258 [10] = details: ATCC 6258, 24 h, pH 7
Candida albicans B3 [11] = details: B3, 12 h
Candida albicans F5 [12] = details: F5, 12 h
Candida albicans Gu4 [13] = details: Gu4, 12 h
[14] = tested on: Candida albicans ATCC 10231; test: microbe, parasite or virus in culture
Candida krusei ATCC 6258 [15] = test: microbe, parasite or virus in culture; details: Pichia kudriavzevii, ATCC6258, 24 h, pH 7
reference strains = test: Antifungal activity, summary over reference strains; assay type: cell-based; parameters: key to Antifungal Activity (level): (−) Means no antifungal activity; (±) low activity; (+) moderate activity; (++) high activity at the concentration mentioned; details: for Antifungal Activity (level): Table 3; for antifungal activity: as reported in Table 1
[16] = tested on: Candida parapsilosis ATCC 22019; test: microbe, parasite or virus in culture; details: Lodderomyces parapsilosis, ATCC22019, 24 h, pH 7
[17] = tested on: Saccharomyces cerevisiae ATCC 9763; test: microbe, parasite or virus in culture; details: ATCC9763, 24 h, pH 7
[18] = tested on: Candida glabrata ATCC 90030; test: microbe, parasite or virus in culture; details: Nakaseomyces glabratus, ATCC90030, 24 h, pH 7
yeast topoisomerase II = yeast topoisomerase II (Saccharomyces cerevisiae, UniProt P06786); test: Yeast topoisomerase II relaxation assay; assay type: biochemical; details: supercoiled pBR322, tested at 1-200 μM
Chain of yeast topoisomerase II (P06786 whole entry): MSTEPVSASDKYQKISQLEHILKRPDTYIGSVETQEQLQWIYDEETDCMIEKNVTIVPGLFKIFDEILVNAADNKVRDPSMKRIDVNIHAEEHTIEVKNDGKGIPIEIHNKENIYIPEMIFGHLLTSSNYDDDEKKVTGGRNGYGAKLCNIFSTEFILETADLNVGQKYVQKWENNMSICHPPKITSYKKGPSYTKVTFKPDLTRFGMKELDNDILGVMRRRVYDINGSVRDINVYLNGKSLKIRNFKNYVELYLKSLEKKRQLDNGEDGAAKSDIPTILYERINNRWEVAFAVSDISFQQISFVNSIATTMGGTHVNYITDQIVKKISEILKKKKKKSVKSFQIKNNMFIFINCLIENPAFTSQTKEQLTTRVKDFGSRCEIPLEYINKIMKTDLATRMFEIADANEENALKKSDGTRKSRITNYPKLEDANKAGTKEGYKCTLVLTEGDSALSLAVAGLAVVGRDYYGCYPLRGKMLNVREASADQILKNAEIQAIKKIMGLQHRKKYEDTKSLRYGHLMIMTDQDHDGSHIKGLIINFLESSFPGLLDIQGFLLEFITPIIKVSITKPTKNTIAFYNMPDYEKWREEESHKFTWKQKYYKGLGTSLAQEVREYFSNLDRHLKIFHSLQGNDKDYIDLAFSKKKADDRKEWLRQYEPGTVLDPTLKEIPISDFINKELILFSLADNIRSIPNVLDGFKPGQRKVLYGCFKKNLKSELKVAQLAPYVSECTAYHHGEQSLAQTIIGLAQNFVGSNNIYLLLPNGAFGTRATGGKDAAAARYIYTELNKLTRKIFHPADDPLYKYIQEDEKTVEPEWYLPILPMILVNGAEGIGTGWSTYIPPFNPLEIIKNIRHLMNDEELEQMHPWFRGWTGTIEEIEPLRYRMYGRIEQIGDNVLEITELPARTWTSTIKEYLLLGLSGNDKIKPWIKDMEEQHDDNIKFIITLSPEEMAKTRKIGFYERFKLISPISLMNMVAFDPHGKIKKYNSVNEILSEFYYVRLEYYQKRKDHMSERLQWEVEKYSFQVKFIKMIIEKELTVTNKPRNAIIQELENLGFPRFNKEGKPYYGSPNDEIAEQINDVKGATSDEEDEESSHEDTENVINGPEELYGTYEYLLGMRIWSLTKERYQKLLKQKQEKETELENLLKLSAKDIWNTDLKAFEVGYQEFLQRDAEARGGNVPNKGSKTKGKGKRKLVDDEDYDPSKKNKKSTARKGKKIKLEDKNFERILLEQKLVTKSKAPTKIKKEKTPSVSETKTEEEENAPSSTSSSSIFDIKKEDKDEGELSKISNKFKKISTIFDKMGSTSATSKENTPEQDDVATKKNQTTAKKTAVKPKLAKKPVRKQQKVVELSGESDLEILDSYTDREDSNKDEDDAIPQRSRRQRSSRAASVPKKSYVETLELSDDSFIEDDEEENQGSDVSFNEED
Protocol: Due to the known activity of acridine and acridone derivatives as human topoisomerase inhibitors widely analysed for cancer chemotherapy, we decided to analyse the influence of Compound 1 as well as its R8 conjugate on the fungal equivalent of that enzyme. The relaxation of supercoiled plasmid DNA by yeast topoisomerase II (yTOPO II) was studied in the presence of different concentrations of both compounds.
The inhibition of yeast topoisomerase II was analysed according to the relaxation assay kit from Inspiralis (Inspiralis Limited, Norwich, UK). Briefly, 250 ng of supercoiled pBR322 DNA (Thermo Fisher Scientific, Waltham, MA, USA), 1 mM ATP (Inspiralis Limited, UK), and 1–200 μM of the analysed compound were mixed with reaction buffer (1 mM Tris-HCl (pH 7.9), 10 mM KCl, 0.5 mM MgCl2, 0.2 % (by volume) glycerol). The reaction was initiated by the addition of an enzyme, allowed to proceed at 30 °C for 30 min and terminated by addition of 40% (m/V) sucrose, 100 mM Tris-HCl pH 8, 10 mM EDTA, and 0.5 mg mL^−1 Bromophenol Blue. Two-step extraction with chloroform:isoamyl alcohol (24:1, by volume) and butanol water was performed and mixtures were analysed on 1% agarose gel in 1 × TAE buffer, 3h, 4.5 V cm^−1. Gel was stained in GelRed 3 × staining solution (Biotium, Fremont, CA, USA) for 30 min and photographed with Gel Doc XR+Gel Documentation System (Bio-Rad: Hercules, CA, USA).

human topoisomerase II = details: cited from earlier work
Candida albicans = tested on: Candida albicans; parameters: method as in PMID 23563951; key to Antifungal Activity (level): (−) Means no antifungal activity; (±) low activity; (+) moderate activity; (++) high activity at the concentration mentioned; details: cited from earlier work
Candida albicans B3 [19] = test: microbe, parasite or virus in culture
Candida albicans Gu5 [20] = test: microbe, parasite or virus in culture
Candida albicans F2 [21] = test: microbe, parasite or virus in culture
Candida albicans Gu4 [22] = test: microbe, parasite or virus in culture
C. albicans ATCC 10231 [23] = assay type: cell-based, Candida albicans; details: 1/4 × MIC to 4 × MIC, RPMI medium
Protocol: Killing kinetics analysis was performed as described previously. […] After an appropriate time of incubation, 10 μL was withdrawn and spread on YPG agar plates. The number of colony-forming units (CFUs) was determined after overnight incubation of the plates at 37 °C. The killing kinetics analysis was performed with the GraphPad Prism 8 software (GraphPad Software Inc., San Diego, CA, USA).

Candida albicans F5 [24] = test: microbe, parasite or virus in culture
Candida albicans B4 [25] = test: microbe, parasite or virus in culture

NCCNc1ccc2ncn3c4ccc(O)cc4c(=O)c1c23 (as salt: hydrochloride) [Compound 1, 5-((2-Aminoethyl)amino)-8-hydroxy-6H-imidazo[4,5,1-de]acridin-6-one]
melting point: 332 to 334 °C

Cc1ccc2c(c1)c(=O)c1c(NCCCN(C)C)ccc3nnn2c31 (as salt: hydrochloride) [Compound C-1296, 5-[-(3′-Dimethylamino)propylamino]-8-methyl-6H-[1,2,3]-triazolo[4,5,l-de]acridin-6-one]
melting point: 120 to 122 °C

CN(C)CCCNc1ccc2nnn3c4ccc(O)cc4c(=O)c1c23 (as salt: hydrochloride) [Compound C-1305, 5-[-(3′-Dimethylamino)propylamino]-8-hydroxy-6H-[1,2,3]-triazolo[4,5,l-de]acridin-6-one]
melting point: 228 to 230 °C

CCNCCNc1ccc2nnn3c4ccc(O)cc4c(=O)c1c23 (as salt: hydrochloride) [Compound C-1410, 5-[2′-(Ethyl)-ethylenediamine]-8-hydroxy-6H-[1,2,3]-triazolo[4,5,l-de]acridin-6-one]
melting point: 300 °C

N=C(N)NCCC[C@H](NC(=O)[C@H](CCCNC(=N)N)NC(=O)[C@H](CCCNC(=N)N)NC(=O)[C@H](CCCNC(=N)N)NC(=O)[C@H](CCCNC(=N)N)NC(=O)[C@H](CCCNC(=N)N)NC(=O)[C@H](CCCNC(=N)N)NC(=O)[C@@H](N)CCCNC(=N)N)C(=O)NCCNc1ccc2ncn3c4ccc(O)cc4c(=O)c1c23 [Compound 1-R8]
MFC (S. cerevisiae ATCC 9763): 2 µg/mL (≈ 1.3 µM) | MIC90 (Candida albicans Gu5 [1]): 2 µg/mL (≈ 1.3 µM) | MIC90 [2]: 1 µg/mL (≈ 0.648 µM) | MFC (C. glabrata DSM 11226): 128 µg/mL (≈ 82.9 µM) | MFC (C. parapsilosis DSM 5784): 8 µg/mL (≈ 5.18 µM) | MFC (C. albicans ATCC 10231 [3]): 32 µg/mL (≈ 20.7 µM) | MFC (C. krusei DSM 6128): 16 µg/mL (≈ 10.4 µM) | MIC90 [4]: 1 µg/mL (≈ 0.648 µM) | MIC90 (Candida albicans B4 [5]): 2 µg/mL (≈ 1.3 µM) | MIC90 [6]: 4 µg/mL (≈ 2.59 µM) | MICs [7]: ≤ 4 µg/mL | IC50 (HEK-293): 1.39 ± 0.099 µM | IC50 (HEPG2): 0.991 ± 0.097 µM | MIC90 (Candida albicans F2 [8]): 1 µg/mL (≈ 0.648 µM) | MIC90 [9]: 0.25 µg/mL (≈ 0.162 µM) | MIC90 (Candida krusei ATCC 6258 [10]): 0.5 µg/mL (≈ 0.324 µM) | MIC90 (Candida albicans B3 [11]): 2 µg/mL (≈ 1.3 µM) | MIC90 (Candida albicans F5 [12]): 1 µg/mL (≈ 0.648 µM) | MIC90 (Candida albicans Gu4 [13]): 2 µg/mL (≈ 1.3 µM)

Cc1ccc2c(c1)c(=O)c1c(NCCCN(C)C)ccc3nnn2c31 [Compound C-1296, 5-[-(3′-Dimethylamino)propylamino]-8-methyl-6H-[1,2,3]-triazolo[4,5,l-de]acridin-6-one]
MIC90 ([14]; ATCC10231, 24 h, pH 7): > 64 µg/mL | MIC90 (Candida krusei ATCC 6258 [15]): > 64 µg/mL | Antifungal Activity (level) (reference strains): ± | antifungal activity (reference strains): no antifungal activity was observed | MIC90 [16]: > 64 µg/mL | MIC90 [17]: 32 µg/mL (≈ 95.4 µM) | MIC90 [18]: > 64 µg/mL

CN(C)CCCNc1ccc2nnn3c4ccc(O)cc4c(=O)c1c23 [Compound C-1305, 5-[-(3′-Dimethylamino)propylamino]-8-hydroxy-6H-[1,2,3]-triazolo[4,5,l-de]acridin-6-one]
MIC90 ([14]; ATCC10231, 24 h, pH 7): > 64 µg/mL | MIC90 (Candida krusei ATCC 6258 [15]): > 64 µg/mL | Antifungal Activity (level) (reference strains): − | antifungal activity (reference strains): no antifungal activity was observed | MIC90 [16]: > 64 µg/mL | MIC90 [17]: > 64 µg/mL | concentration that totally inhibited yeast topoisomerase II-mediated relaxation (yeast topoisomerase II): 50 µM | concentration that totally inhibited human topoisomerase II-mediated relaxation (human topoisomerase II): 10 µM | IC50 (human topoisomerase II; read-out: concentration that diminished the relaxation reaction by 50%): 2.5 µM | MIC90 [18]: > 64 µg/mL

CCN(CC)CCNc1ccc2ncn3c4ccc(OC)cc4c(=O)c1c23 [Compound C-1330]
Antifungal Activity (level) (Candida albicans; Table 3, activity data published previously ref 8): + | antifungal activity (Candida albicans): showed phototoxic antifungal activity

CCNCCNc1ccc2nnn3c4ccc(O)cc4c(=O)c1c23 [Compound C-1410, 5-[2′-(Ethyl)-ethylenediamine]-8-hydroxy-6H-[1,2,3]-triazolo[4,5,l-de]acridin-6-one]
MIC90 ([14]; ATCC10231, 24 h, pH 7): > 64 µg/mL | MIC90 (Candida krusei ATCC 6258 [15]): > 64 µg/mL | Antifungal Activity (level) (reference strains): − | antifungal activity (reference strains): no antifungal activity was observed | MIC90 [16]: > 64 µg/mL | MIC90 [17]: > 64 µg/mL | MIC90 [18]: > 64 µg/mL

OC(Cn1cncn1)(Cn1cncn1)c1ccc(F)cc1F [Fluconazole]
MIC90 (Candida albicans B3 [19]): 1 µg/mL (≈ 3.27 µM) | MIC90 ([14]; ATCC10231): 8 µg/mL (≈ 26.1 µM) | MIC90 (Candida albicans Gu5 [20]): > 64 µg/mL | MIC90 (Candida albicans F2 [21]): 8 µg/mL (≈ 26.1 µM) | MIC90 (Candida albicans Gu4 [22]): 4 µg/mL (≈ 13.1 µM) | killing kinetics, kind of effect (C. albicans ATCC 10231 [23]): fungistatic | MIC90 (Candida albicans F5 [24]): > 64 µg/mL | MIC90 (Candida albicans B4 [25]): 16 µg/mL (≈ 52.2 µM)
